We go through 29 compounds from patent US20240208912A1 (Mirati Therapeutics, Inc., priority 2021, published 2024).

pIC50: −log10 of the molar value.

For one assay, the target named is T1, PRMT5/MEP50 complex (Homo sapiens, UniProt O14744).
T1 construct: purchased Reaction Biology Corporation
T1 sequence (O14744 2-637 limits assumed): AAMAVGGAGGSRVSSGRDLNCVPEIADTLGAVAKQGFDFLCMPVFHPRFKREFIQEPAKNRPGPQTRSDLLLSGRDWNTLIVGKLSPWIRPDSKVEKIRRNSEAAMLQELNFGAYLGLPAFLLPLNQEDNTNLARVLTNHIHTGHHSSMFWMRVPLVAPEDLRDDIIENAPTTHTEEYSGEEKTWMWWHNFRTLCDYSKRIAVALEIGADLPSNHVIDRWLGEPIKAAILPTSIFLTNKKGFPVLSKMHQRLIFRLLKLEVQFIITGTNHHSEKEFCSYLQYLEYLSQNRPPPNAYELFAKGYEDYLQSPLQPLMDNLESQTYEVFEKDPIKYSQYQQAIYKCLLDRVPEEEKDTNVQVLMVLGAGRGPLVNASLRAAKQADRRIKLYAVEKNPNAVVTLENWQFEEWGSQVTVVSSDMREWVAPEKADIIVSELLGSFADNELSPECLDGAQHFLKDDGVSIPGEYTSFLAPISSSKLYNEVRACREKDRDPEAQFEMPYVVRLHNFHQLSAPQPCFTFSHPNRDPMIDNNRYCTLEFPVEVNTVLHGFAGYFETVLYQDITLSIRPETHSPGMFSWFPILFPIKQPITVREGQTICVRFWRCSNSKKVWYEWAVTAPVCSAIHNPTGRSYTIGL
T1 sequence (Q9BQA1 2-342 partner limits assumed): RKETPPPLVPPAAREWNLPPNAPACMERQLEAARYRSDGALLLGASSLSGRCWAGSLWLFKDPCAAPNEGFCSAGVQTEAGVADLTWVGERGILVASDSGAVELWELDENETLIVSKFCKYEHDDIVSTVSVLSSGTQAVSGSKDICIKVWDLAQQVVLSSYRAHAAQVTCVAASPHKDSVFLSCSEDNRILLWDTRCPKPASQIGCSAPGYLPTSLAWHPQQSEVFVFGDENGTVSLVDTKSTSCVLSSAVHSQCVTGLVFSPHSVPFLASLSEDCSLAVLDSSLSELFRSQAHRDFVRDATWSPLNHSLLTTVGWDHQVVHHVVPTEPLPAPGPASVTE
In words: PRMT5:MEP50 HotSpot Assay (full-length histone H2A substrate, plus and minus MTA). The class given is biochemical. To be noted: IC50 + 2 μM MTA, in the presence of 2 μM MTA. The method, then: The PRMT5 inhibitory activity of compounds of the present invention was determined using either a PRMT5:MEP50 FlashPlate Assay (Reaction Biology Corporation) or a PRMT5:MEP50 HotSpot Assay (Reaction Biology Corporation).
The assay uses recombinant full-length hi stone H2A as the PRMT5 substrate. […] The reaction was stopped and transferred to filter paper for detection. The amount of tritiated H2A in each sample was determined using a scintillation counter.
`Cn1ncc(-c2ccc3c(=O)[nH]nc(CN)c3c2)c1-c1c(F)cnc(OC2CC2)c1C#N` (atropisomer, axis not shown; (M)) [Example 16-136, (M)-4-(4-(4-(aminomethyl)-1-oxo-1,2-dihydrophthalazin-6-yl)-1-methyl-1H-pyrazol-5-yl)-2-cyclopropoxy-5-fluoronicotinonitrile]: the negative-log IC50 (pIC50) is 6.41.
For the compound `Cn1ncc(-c2ccc3c(=O)[nH]nc(CN)c3c2)c1-c1c(Cl)ccc(OC2CC2)c1C#N` (atropisomer, axis not shown; (M)) [Example 16-132, (M)-2-(4-(4-(aminomethyl)-1-oxo-1,2-dihydrophthalazin-6-yl)-1-methyl-1H-pyrazol-5-yl)-3-chloro-6-cyclopropoxybenzonitrile], the pIC50 was 6.60.
For the compound `Cn1ncc(-c2ccc3c(=O)[nH]nc(CN)c3c2)c1-c1c(F)cc(S(F)(F)(F)(F)F)cc1C#N` (atropisomer, axis not shown; (P)) [Example 16-133, (P)-2-(4-(4-(aminomethyl)-1-oxo-1,2-dihydrophthalazin-6-yl)-1-methyl-1H-pyrazol-5-yl)-3-fluoro-5-(pentafluoro-16-sulfanyl)benzonitrile], the pIC50 is 5.97.
Still for that read-out and setting: next, `C[C@H](N)c1n[nH]c(=O)c2ccc(-c3cnn(C)c3-c3ccc4ccccc4c3C#N)nc12` [Example 20-2]: 6.70; `COc1nnc(CN)c2cc(-c3cnn(C)c3-c3sc4ccccc4c3C#N)ccc12` [Example 17-6]: 5.12.
On to `Cc1ncn(-c2ccc3c(=O)[nH]nc(CN)c3c2)c1-c1sc2ccccc2c1C#N` [Example 20-6, 2-[3-[4-(aminomethyl)-1-oxo-2H-phthalazin-6-yl]-5-methyl-imidazol-4-yl]benzothiophene-3-carbonitrile], for which the pIC50 is 5.65.
The same measure, in the same setting: next, `Cn1ncc(-c2ccc3c(=O)[nH]nc(CN)c3c2)c1-c1c(Cl)cc2ccccc2c1C#N` (single isomer, unassigned) [Example 16-127, (P)-2-(4-(4-(aminomethyl)-1-oxo-1,2-dihydrophthalazin-6-yl)-1-methyl-1H-pyrazol-5-yl)-3-chloro-1-naphthonitrile]: 6.46.
For `Cn1ncc(-c2ccc3c(=O)[nH]nc(CN)c3c2)c1-c1c(C2COC2)ccc2c1COC2` (atropisomer, axis not shown; (P)) [Example 16-137, (P)-4-(aminomethyl)-6-(1-methyl-5-(5-(oxetan-3-yl)-1,3-dihydroisobenzofuran-4-yl)-1H-pyrazol-4-yl)phthalazin-1(2H)-one], the pIC50 is under 5.00.
For the compound `Cc1c(F)c(-c2c(-c3cc(C)c4c(=O)[nH]nc(CN)c4c3)cnn2C)c(C#N)c2cc(Cl)cnc12` (single isomer, unassigned) [Example 16-108, (M)-6-(4-(4-(aminomethyl)-8-methyl-1-oxo-1,2-dihydrophthalazin-6-yl)-1-methyl-1H-pyrazol-5-yl)-3-chloro-7-fluoro-8-methylquinoline-5-carbonitrile], the pIC50 is 8.30.
Consider `Cn1ncc(-c2cc(C(=O)C(F)F)c3c(=O)[nH]nc(CN)c3c2)c1-c1sc2ccccc2c1C#N` [Example 15-9, 2-(4-(4-(aminomethyl)-8-(2,2-difluoro-acetyl)-1-oxo-1,2-dihydrophthalazin-6-yl)--methyl-1H-pyrazol-5-yl)benzo[b]-thiophene-3-carbonitrile], for which the pIC50 was 5.90.
For the compound `Cn1ncc(-c2ccc3c(=O)[nH]nc(CN)c3c2)c1-c1c(F)c(Cl)cc(CC2CC2)c1C#N` (single isomer, unassigned) [Example 16-125, (P)-2-(4-(4-(aminomethyl)-1-oxo-1,2-dihydrophthalazin-6-yl)-1-methyl-1H-pyrazol-5-yl)-4-chloro-6-(cyclopropylmethyl)-3-fluorobenzonitrile], the pIC50 was 5.53.
On the same count and under the same terms, next, `Cn1ncc(-c2ccc3c(=O)[nH]nc(CN)c3c2)c1-c1c(C#N)cc2[nH]cnc2c1Cl` (atropisomer, axis not shown; (P)) [Example 16-116, (P)-5-(4-(4-(aminomethyl)-1-oxo-1,2-dihydrophthalazin-6-yl)-1-methyl-1H-pyrazol-5-yl)-4-chloro-1H-benzo[d]imidazole-6-carbonitrile]: 6.32.
The same measure, in the same setting: next, `Cn1ncc(-c2ccc3c(c2)C(CN)NC3=O)c1-c1sc2ccccc2c1C#N` (centres unmarked) [Example 20-4, 2-(4-(3-(aminomethyl)-1-oxoisoindolin-5-yl)-1-methyl-1H-pyrazol-5-yl)benzo[b]thiophene-3-carbonitrile]: 5.99; `Cn1ncc(-c2ccc3c(=O)[nH]nc(CN)c3c2)c1N1CCCCC1C#N` (centres unmarked) [Example 4-289, 1-(4-(4-(aminomethyl)-1-oxo-1,2-dihydrophthalazin-6-yl)-1-methyl-1H-pyrazol-5-yl)piperidine-2-carbonitrile]: 5.39.
On the same count and under the same terms, then `CCOc1cc(-c2cnn(C)c2-c2c(F)c(C)c3ncc(Cl)cc3c2C#N)cc2c(CN)n[nH]c(=O)c12` (single isomer, unassigned) [Example 16-112, (M)-6-(4-(4-(aminomethyl)-8-ethoxy-1-oxo-1,2-dihydrophthalazin-6-yl)-1-methyl-1H-pyrazol-5-yl)-3-chloro-7-fluoro-8-methylquinoline-5-carbonitrile], with 7.29.
Regarding `Cc1cc2ccccc2c(C#N)c1-c1c(-c2ccc3c(=O)[nH]nc(CN)c3c2)cnn1C` (single isomer, unassigned) [Example 12-15A], the negative logarithm of the IC50 (pIC50) was 5.62.
`Cn1ncc(-c2cnc3c(=O)[nH]nc(CN)c3c2)c1-c1sc2ccccc2c1C#N` [Example 17-4, 2-(4-(5-(aminomethyl)-8-oxo-7,8-dihydropyrido[2,3-d]pyridazin-3-yl)-1-methyl-1H-pyrazol-5-yl)benzo[b]thiophene-3-carbonitrile]: the pIC50 was 5.88.
As for `Cc1c(Cl)cc(OC2CC2)c(C#N)c1-c1c(-c2ccc3c(=O)[nH]nc(CN)c3c2)cnn1C` (single isomer, unassigned) [Example 16-121, (M)-2-(4-(4-(aminomethyl)-1-oxo-1,2-dihydrophthalazin-6-yl)-1-methyl-1H-pyrazol-5-yl)-4-chloro-6-cyclopropoxy-3-methylbenzonitrile], the pIC50 is under 5.00.
`Cc1c(F)c(-c2c(-c3cc(C)c4c(=O)[nH]nc(CN)c4c3)cnn2C)c(C#N)c2cc(Cl)cnc12` (single isomer, unassigned) [Example 16-107, (P)-6-(4-(4-(aminomethyl)-8-methyl-1-oxo-1,2-dihydrophthalazin-6-yl)-1-methyl-1H-pyrazol-5-yl)-3-chloro-7-fluoro-8-methylquinoline-5-carbonitrile]: the pIC50 was 6.20.
Turning to `C[C@@H](N)c1n[nH]c(=O)c2ccc(-c3cnn(C)c3-c3ccc4ccccc4c3C#N)nc12` [Example 20-1], the pIC50 was 5.90.
As for `N#Cc1ccccc1-n1c(-c2ccc3c(=O)[nH]nc(CN)c3c2)cnc1CO` [Example 4-194, 2-(5-(4-(aminomethyl)-1-oxo-1,2-dihydrophthalazin-6-yl)-2-(hydroxymethyl)-1H-imidazol-1-yl)benzonitrile], the pIC50 was 5.42.
Take `Cc1c(F)c(-c2c(-c3cc(Cl)c4c(=O)[nH]nc(CN)c4c3)cnn2C)c(C#N)c2cc(Cl)cnc12` (single isomer, unassigned) [Example 16-109, (P)-6-(4-(4-(aminomethyl)-8-chloro-1-oxo-1,2-dihydrophthalazin-6-yl)-1-methyl-1H-pyrazol-5-yl)-3-chloro-7-fluoro-8-methylquinoline-5-carbonitrile]: the pIC50 was 5.86.
Turning to `Cc1cc2ccccc2c(C#N)c1-c1c(-c2ccc3c(=O)[nH]nc(CN)c3c2)cnn1C` (single isomer, unassigned) [Example 12-15B], the pIC50 is 6.45.
Turning to `Cn1ncc(-c2ccc3c(=O)[nH]nc(CN)c3c2)c1-c1ccc2n1C(=O)CCC2` [Example 4-278, 4-(aminomethyl)-6-(1-methyl-5-(5-oxo-5,6,7,8-tetrahydroindolizin-3-yl)-1H-pyrazol-4-yl)phthalazin-1(2H)-one], the pIC50 is 6.00.
In the case of `Cn1ncc(-c2ccc3c(=O)[nH]nc(CN)c3c2)c1-c1c(Cl)c(Cl)cc(OC2CC2)c1C#N` (single isomer, unassigned) [Example 16-123, (P)-2-(4-(4-(aminomethyl)-1-oxo-1,2-dihydrophthalazin-6-yl)-1-methyl-1H-pyrazol-5-yl)-3,4-dichloro-6-cyclopropoxybenzonitrile], the pIC50 is 5.40.
For the compound `Cc1cnc2cc(F)c(-c3c(-c4ccc5c(=O)[nH]nc(CN)c5c4)cnn3C)c(C#N)c2c1` (atropisomer, axis not shown; (P)) [Example 16-36, (P)-6-[4-[4-(aminomethyl)-1-oxo-2H-phthalazin-6-yl]-2-methyl-pyrazol-3-yl]-7-fluoro-3-methyl-quinoline-5-carbonitrile], the pIC50 is 6.27.
`Cn1ncc(-c2ccc3c(=O)[nH]nc(CN)c3c2)c1-c1c(C(F)F)cc2ccccc2c1C#N` (single isomer, unassigned) [Example 16-130, (M)-2-(4-(4-(aminomethyl)-1-oxo-1,2-dihydrophthalazin-6-yl)-1-methyl-1H-pyrazol-5-yl)-3-(difluoromethyl)-1-naphthonitrile]: the pIC50 was 7.04.
The same measure, in the same setting: next, `Cn1ncc(-c2ccc3c(=O)[nH]nc(CN)c3c2)c1-c1c(Cl)cc2ccccc2c1C#N` (single isomer, unassigned) [Example 16-128, (M)-2-(4-(4-(aminomethyl)-1-oxo-1,2-dihydrophthalazin-6-yl)-1-methyl-1H-pyrazol-5-yl)-3-chloro-1-naphthonitrile]: 7.19.

Staying with this assay, now noted: read-out: IC50 + 2 μM MTA, in the presence of 2 μM MTA.
For the compound `Cn1ncc(-c2ccc3c(=O)[nH]nc(CN)c3c2)c1-c1c(C2COC2)ccc2c1COC2` (atropisomer, axis not shown; (M)) [Example 16-138, (M)-4-(aminomethyl)-6-(1-methyl-5-(5-(oxetan-3-yl)-1,3-dihydroisobenzofuran-4-yl)-1H-pyrazol-4-yl)phthalazin-1(2H)-one], the pIC50 is under 5.00.
